Tests used:
Androgen receptor = molecular target: T1, Androgen receptor (Homo sapiens, UniProt P10275)
T1 sequence (P10275 whole entry): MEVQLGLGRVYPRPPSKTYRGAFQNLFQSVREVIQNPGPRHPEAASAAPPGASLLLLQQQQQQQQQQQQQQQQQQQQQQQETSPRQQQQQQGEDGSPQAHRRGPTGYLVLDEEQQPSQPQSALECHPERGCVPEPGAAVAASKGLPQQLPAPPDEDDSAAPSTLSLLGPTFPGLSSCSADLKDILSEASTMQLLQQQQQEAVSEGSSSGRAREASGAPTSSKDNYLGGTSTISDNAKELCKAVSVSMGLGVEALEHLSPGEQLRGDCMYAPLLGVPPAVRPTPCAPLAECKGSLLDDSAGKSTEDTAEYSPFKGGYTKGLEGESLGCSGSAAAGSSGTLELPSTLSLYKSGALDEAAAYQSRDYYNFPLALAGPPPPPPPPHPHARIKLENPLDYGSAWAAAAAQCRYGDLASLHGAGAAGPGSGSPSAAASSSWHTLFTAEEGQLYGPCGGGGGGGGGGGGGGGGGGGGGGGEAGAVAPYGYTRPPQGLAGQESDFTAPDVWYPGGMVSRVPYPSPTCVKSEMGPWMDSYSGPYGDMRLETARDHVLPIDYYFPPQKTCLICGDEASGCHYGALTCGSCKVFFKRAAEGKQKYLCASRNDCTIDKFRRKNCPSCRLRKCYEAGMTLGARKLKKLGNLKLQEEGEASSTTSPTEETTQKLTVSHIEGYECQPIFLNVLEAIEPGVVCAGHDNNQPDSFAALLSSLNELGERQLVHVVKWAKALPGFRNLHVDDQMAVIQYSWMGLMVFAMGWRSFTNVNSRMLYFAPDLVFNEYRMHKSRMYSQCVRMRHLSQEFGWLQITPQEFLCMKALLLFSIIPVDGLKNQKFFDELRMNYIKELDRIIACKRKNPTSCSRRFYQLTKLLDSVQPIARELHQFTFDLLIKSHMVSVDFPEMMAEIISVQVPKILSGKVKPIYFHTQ

[1] = molecular target: Gamma-aminobutyric acid receptor subunit alpha-1 (Rattus norvegicus, UniProt P62813)
Gamma-aminobutyric acid receptor subunit alpha-1, sequence (P62813 whole entry): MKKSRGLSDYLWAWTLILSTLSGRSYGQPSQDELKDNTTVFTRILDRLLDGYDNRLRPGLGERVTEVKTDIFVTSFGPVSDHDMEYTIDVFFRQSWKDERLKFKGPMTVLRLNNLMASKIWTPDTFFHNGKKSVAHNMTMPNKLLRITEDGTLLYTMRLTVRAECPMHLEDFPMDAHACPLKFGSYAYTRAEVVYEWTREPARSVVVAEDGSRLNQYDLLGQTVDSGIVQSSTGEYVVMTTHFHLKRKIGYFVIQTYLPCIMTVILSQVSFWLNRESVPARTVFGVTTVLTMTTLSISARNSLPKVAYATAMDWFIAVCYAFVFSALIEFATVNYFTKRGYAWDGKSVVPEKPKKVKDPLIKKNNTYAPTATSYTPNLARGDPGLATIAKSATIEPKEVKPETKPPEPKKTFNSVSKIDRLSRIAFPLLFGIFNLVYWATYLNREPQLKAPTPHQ

[2] = molecular target: T2, Gamma-aminobutyric acid receptor subunit alpha-1/alpha-2/beta-2/gamma-2 (Homo sapiens, UniProt P14867+P18507+P47869+P47870); format: functional, cell-based
T2 sequence (P14867 whole entry): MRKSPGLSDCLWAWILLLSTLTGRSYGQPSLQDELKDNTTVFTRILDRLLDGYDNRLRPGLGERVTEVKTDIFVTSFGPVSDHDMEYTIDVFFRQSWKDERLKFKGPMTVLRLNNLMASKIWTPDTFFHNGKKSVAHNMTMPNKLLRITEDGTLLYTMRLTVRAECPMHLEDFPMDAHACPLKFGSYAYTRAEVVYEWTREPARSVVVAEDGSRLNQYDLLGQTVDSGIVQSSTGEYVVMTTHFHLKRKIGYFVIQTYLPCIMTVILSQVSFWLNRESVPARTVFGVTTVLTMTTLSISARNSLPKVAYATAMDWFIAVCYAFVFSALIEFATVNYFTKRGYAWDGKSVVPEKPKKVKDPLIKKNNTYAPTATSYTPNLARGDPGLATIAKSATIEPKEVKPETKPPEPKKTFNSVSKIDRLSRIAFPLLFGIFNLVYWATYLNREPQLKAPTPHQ
T2 sequence (P47870 whole entry): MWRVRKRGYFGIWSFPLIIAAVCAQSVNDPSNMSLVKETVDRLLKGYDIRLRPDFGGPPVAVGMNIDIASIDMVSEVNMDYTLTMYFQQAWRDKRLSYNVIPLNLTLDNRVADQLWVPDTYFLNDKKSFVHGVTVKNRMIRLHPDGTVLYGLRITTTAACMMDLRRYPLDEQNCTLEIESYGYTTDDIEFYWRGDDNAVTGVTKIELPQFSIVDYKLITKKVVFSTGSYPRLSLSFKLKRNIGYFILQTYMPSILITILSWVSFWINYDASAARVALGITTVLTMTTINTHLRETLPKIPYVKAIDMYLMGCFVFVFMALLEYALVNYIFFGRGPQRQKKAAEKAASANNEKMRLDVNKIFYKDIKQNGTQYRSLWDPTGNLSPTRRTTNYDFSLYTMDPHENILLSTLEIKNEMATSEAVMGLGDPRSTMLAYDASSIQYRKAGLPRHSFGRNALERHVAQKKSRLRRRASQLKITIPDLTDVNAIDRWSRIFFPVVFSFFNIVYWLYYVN
T2 sequence (P18507 whole entry): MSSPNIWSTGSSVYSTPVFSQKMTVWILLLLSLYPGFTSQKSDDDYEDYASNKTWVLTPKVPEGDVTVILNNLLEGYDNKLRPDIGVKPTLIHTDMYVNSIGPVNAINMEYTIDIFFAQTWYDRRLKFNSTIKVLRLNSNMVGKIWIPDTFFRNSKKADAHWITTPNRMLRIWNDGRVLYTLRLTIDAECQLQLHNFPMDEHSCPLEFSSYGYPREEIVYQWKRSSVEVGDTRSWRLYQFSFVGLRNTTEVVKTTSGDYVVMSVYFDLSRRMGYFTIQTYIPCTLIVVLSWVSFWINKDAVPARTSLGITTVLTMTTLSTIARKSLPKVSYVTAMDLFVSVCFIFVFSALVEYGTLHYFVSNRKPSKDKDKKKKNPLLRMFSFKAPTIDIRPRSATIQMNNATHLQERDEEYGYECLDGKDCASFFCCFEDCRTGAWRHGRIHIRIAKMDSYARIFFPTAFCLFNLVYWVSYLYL
T2 sequence (P47869 whole entry): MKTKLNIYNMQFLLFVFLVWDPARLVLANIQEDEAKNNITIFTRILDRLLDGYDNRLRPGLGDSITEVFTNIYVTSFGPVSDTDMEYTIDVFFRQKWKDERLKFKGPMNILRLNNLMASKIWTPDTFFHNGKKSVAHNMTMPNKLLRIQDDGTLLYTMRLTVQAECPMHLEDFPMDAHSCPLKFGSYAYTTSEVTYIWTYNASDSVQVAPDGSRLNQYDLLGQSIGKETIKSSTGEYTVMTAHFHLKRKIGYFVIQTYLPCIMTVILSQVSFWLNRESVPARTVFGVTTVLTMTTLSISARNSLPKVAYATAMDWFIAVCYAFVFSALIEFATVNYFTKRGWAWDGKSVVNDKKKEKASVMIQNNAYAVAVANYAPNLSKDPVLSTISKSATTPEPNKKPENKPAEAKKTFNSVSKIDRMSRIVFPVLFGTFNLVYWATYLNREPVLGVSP

[3] = molecular target: T2, Gamma-aminobutyric acid receptor subunit alpha-1/alpha-2/beta-2/gamma-2; format: functional, cell-based; remark: listed apart in the source
[4] = molecular target: T3, Peroxisome proliferator-activated receptor gamma (Homo sapiens, UniProt P37231); format: functional
T3 sequence (P37231 whole entry): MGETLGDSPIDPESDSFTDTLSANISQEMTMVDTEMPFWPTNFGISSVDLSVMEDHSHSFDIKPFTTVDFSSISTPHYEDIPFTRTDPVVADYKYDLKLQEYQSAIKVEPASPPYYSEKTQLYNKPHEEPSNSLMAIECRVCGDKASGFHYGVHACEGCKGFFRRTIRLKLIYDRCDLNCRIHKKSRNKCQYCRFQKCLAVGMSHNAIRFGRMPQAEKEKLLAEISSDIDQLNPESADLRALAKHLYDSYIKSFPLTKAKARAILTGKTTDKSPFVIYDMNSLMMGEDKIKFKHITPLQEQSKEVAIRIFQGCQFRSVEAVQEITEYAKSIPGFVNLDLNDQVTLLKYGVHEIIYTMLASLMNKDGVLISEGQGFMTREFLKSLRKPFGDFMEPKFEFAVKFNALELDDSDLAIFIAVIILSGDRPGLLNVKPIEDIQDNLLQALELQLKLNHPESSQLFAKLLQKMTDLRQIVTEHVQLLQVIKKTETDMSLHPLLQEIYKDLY

[5] = molecular target: T2, Gamma-aminobutyric acid receptor subunit alpha-1/alpha-2/beta-2/gamma-2; format: protein-complex assay
[6] = molecular target: Receptor tyrosine-protein kinase erbB-2 (Homo sapiens, UniProt P04626); format: functional
Receptor tyrosine-protein kinase erbB-2, sequence (P04626 whole entry): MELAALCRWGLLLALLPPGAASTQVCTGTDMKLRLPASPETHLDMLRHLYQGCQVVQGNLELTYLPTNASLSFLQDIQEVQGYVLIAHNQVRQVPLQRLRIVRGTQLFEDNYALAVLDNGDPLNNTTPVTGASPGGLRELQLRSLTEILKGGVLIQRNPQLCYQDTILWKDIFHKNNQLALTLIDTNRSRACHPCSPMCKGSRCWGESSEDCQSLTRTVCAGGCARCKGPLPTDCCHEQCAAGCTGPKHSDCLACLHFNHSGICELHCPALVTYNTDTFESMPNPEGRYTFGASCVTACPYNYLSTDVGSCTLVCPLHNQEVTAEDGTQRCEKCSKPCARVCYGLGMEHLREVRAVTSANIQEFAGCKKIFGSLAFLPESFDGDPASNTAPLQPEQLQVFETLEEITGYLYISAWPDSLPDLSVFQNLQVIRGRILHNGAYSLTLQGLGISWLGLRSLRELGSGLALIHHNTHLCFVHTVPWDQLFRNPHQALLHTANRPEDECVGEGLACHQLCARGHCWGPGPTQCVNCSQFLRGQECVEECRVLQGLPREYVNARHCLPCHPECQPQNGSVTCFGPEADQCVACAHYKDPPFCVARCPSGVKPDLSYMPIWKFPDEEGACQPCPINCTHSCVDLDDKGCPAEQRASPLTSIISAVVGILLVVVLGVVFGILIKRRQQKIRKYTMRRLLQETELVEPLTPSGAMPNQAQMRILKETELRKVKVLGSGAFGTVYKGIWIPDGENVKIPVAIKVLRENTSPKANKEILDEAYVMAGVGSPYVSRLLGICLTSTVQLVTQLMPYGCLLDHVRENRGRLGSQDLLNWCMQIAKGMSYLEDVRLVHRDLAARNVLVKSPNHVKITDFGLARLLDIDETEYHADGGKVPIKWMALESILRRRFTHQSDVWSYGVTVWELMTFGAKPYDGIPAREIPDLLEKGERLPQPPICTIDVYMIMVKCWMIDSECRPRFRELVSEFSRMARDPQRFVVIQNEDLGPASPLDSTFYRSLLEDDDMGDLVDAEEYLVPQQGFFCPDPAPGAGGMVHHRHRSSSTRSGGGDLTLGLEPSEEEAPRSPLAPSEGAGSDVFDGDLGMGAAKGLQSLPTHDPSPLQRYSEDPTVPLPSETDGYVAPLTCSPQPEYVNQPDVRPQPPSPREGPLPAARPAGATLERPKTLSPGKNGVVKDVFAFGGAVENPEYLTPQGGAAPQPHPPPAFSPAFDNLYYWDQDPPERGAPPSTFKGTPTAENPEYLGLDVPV

Estrogen receptor [7] = molecular target: T4, Estrogen receptor (Homo sapiens, UniProt P03372); format: functional
T4 sequence (P03372 whole entry): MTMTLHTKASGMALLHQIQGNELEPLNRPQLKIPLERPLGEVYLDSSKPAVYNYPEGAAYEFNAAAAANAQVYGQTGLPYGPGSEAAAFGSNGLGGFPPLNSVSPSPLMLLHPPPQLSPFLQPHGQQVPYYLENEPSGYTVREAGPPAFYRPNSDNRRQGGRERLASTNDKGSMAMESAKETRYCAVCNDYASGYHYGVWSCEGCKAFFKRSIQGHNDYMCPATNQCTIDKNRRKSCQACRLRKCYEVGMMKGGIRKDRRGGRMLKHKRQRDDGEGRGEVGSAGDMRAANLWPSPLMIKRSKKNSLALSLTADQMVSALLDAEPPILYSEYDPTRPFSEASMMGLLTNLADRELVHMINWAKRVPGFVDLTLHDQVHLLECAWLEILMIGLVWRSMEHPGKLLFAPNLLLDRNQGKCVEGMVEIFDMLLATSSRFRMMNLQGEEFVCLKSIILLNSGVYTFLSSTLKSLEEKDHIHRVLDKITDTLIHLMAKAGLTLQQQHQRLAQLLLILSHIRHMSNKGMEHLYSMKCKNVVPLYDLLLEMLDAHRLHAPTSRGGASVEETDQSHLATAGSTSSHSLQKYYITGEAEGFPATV

Estrogen receptor [8] = molecular target: T4, Estrogen receptor; format: functional; remark: listed apart in the source
[9] = molecular target: Vascular endothelial growth factor receptor 2 (Homo sapiens, UniProt P35968); format: functional
Vascular endothelial growth factor receptor 2, sequence (P35968 whole entry): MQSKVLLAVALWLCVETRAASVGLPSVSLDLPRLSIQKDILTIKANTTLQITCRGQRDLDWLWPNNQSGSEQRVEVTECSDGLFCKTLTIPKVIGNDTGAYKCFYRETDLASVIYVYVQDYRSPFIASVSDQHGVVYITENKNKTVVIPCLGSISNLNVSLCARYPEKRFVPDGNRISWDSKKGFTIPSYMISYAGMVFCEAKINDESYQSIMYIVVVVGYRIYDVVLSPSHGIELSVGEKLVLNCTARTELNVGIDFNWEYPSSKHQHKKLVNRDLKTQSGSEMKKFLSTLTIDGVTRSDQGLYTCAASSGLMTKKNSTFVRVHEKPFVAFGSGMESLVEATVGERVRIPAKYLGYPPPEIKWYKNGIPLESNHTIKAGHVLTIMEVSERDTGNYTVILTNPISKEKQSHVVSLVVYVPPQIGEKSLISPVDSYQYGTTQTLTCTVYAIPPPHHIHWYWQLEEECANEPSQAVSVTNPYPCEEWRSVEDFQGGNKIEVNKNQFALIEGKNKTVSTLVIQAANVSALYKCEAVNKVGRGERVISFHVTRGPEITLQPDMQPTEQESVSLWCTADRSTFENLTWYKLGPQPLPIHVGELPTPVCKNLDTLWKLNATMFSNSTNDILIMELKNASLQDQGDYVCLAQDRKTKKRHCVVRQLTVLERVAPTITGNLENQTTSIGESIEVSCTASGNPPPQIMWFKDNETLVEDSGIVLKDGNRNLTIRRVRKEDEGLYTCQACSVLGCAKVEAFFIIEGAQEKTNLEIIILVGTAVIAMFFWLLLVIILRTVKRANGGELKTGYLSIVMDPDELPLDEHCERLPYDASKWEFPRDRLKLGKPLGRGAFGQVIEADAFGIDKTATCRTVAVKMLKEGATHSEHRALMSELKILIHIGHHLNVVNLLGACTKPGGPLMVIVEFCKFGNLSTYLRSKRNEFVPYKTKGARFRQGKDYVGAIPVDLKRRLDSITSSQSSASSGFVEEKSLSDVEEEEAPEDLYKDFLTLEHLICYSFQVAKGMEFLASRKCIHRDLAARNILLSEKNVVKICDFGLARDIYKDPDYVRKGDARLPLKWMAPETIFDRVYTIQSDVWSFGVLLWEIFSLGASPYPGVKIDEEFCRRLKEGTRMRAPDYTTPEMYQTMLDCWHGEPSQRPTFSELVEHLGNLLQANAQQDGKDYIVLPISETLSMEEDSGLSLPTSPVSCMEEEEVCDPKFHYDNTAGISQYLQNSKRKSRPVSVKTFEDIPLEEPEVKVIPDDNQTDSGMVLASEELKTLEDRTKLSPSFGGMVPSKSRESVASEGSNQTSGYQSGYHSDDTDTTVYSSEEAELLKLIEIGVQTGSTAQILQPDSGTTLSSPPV

[10] = molecular target: T5, Alpha-1A adrenergic receptor (Homo sapiens, UniProt P35348)
T5 sequence (P35348 whole entry): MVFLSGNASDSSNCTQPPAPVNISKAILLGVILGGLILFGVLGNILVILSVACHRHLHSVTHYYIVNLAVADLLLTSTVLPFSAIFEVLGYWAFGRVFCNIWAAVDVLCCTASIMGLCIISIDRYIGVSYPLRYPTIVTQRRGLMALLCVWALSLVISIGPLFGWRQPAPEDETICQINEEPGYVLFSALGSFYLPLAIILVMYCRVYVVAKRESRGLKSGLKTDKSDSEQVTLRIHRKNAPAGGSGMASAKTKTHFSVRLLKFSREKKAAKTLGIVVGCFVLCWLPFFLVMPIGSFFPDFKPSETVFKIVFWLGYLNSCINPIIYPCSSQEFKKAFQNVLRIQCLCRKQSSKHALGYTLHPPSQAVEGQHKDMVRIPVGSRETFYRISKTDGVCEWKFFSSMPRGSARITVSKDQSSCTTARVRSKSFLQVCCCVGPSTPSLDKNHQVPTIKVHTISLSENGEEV
Further: assay procedure not described here.

| SMILES | AC50 (Androgen receptor) | AC50 [1] | AC50 [2] | AC50 [3] | AC50 [4] | AC50 [5] | other results |
| --- | --- | --- | --- | --- | --- | --- | --- |
| COc1cccc2c1C(=O)c1c(O)c3c(c(O)c1C2=O)C[C@@](O)(C(=O)CO)C[C@@H]3O[C@H]1C[C@H](N)[C@H](O[C@@H]2CCCCO2)[C@H](C)O1 [PIRARUBICIN] | > 30 µM | > 30 µM | – | – | – | – | – |
| N[C@@H](Cc1cc(I)c(Oc2cc(I)c(O)c(I)c2)c(I)c1)C(=O)O [LEVOTHYROXINE] | – | – | > 30 µM | > 30 µM | > 30 µM | – | – |
| CN(C)CCc1c[nH]c2ccc(CS(=O)(=O)N3CCCC3)cc12 [ALMOTRIPTAN] | – | – | > 30 µM | > 30 µM | – | – | – |
| CS(=O)(=O)Nc1ccc([N+](=O)[O-])cc1Oc1ccccc1 [NIMESULIDE] | – | – | > 30 µM | > 30 µM | – | > 30 µM | – |
| C[C@@H](O)[C@H]1C(=O)N2C(C(=O)O)=C(SCCN=CN)C[C@H]12 [IMIPENEM ANHYDROUS] | – | – | > 2000 µM | > 2400 µM | > 300 µM | – | AC50 [6]: > 300 µM; AC50 (Estrogen receptor [7]): > 300 µM; AC50 (Estrogen receptor [8]): > 300 µM; AC50 [9]: > 300 µM |
| c1cnc2cc3c(cc2n1)[C@@H]1CNC[C@H]3C1 [VARENICLINE] | – | – | > 30 µM | > 30 µM | > 30 µM | – | AC50 [6]: > 30 µM; AC50 (Estrogen receptor [7]): > 30 µM; AC50 (Estrogen receptor [8]): 4.6 µM; AC50 [9]: > 30 µM |
| CN(C)CCC=C1c2ccccc2CCc2ccccc21 [AMITRIPTYLINE] | – | – | – | – | – | > 30 µM | AC50 [10]: 0.0299 µM; AC50 [9]: > 30 µM |
| N#Cc1ccnc(N2C(=O)CC[C@H]2C(=O)N(c2cncc(F)c2)[C@H](C(=O)NC2CC(F)(F)C2)c2ccccc2Cl)c1 [IVOSIDENIB] | > 30 µM | – | – | – | – | > 30 µM | – |
| C#CCN(C)Cc1ccccc1 [PARGYLINE] | – | > 30 µM | > 30 µM | > 30 µM | – | – | – |
| C[C@@H](CN1CC(=O)NC(=O)C1)N1CC(=O)NC(=O)C1 [DEXRAZOXANE] | > 30 µM | > 30 µM | – | – | – | – | – |
| O=c1[nH]c2ccccc2n1CCN1CCN(c2cccc(C(F)(F)F)c2)CC1 [FLIBANSERIN] | > 30 µM | – | – | – | – | > 10 µM | – |
| CC(C)(Oc1ccc(Cl)cc1)C(=O)NC(=O)NCN1CCOCC1 [PLAFIBRIDE] | > 30 µM | – | – | – | – | > 30 µM | – |
| CO[C@@H]1[C@@H](OC(N)=O)[C@@H](O)[C@H](Oc2ccc3c(O)c(NC(=O)c4ccc(O)c(CC=C(C)C)c4)c(=O)oc3c2C)OC1(C)C [NOVOBIOCIN] | – | – | > 30 µM | > 30 µM | > 30 µM | – | AC50 [6]: > 30 µM; AC50 (Estrogen receptor [7]): > 30 µM; AC50 (Estrogen receptor [8]): > 30 µM; AC50 [9]: 25 µM |
| C[C@]12CC[C@@H]3c4ccc(OC(=O)N(CCCl)CCCl)cc4CC[C@H]3[C@@H]1CC[C@@H]2OP(=O)(O)O [ESTRAMUSTINE PHOSPHATE] | > 30 µM | > 30 µM | – | – | – | – | – |
| O=C(O)[C@H]1/C(=C/CO)O[C@@H]2CC(=O)N21 [CLAVULANIC ACID] | – | – | > 30 µM | > 30 µM | > 30 µM | – | AC50 (Estrogen receptor [7]): > 30 µM; AC50 (Estrogen receptor [8]): > 30 µM |
| CC#CC(=O)N1CCC[C@H]1c1nc(-c2ccc(C(=O)Nc3ccccn3)cc2)c2c(N)nccn12 [ACALABRUTINIB] | > 30 µM | > 30 µM | – | – | – | > 30 µM | – |
| O=C(Cc1cccs1)N[C@@H]1C(=O)N2C(C(=O)[O-])=C(C[n+]3ccccc3)CS[C@H]12 [CEPHALORIDINE] | > 30 µM | > 30 µM | > 30 µM | > 30 µM | – | – | – |
| CC(=O)Oc1ccccc1C(=O)O [ASPIRIN] | > 30 µM | – | – | – | – | > 30 µM | AC50 [10]: > 10 µM; AC50 [9]: > 30 µM |
| CCCCCCO[C@@H](C)c1cccc(-c2csc(NC(=O)c3cc(Cl)c(/C=C(\C)C(=O)O)c(Cl)c3)n2)c1OC [LUSUTROMBOPAG] | > 30 µM | > 30 µM | – | – | – | – | – |
| OC[C@H]1NC[C@H](O)[C@@H](O)[C@H]1O | > 30 µM | > 30 µM | – | – | – | – | – |
| CCCCCCCCCCCCCCCC(=O)OC[C@H](COP(=O)([O-])OCC[N+](C)(C)C)OC(=O)CCCCCCCCCCCCCCC [COLFOSCERIL PALMITATE] | > 30 µM | > 30 µM | – | – | – | – | – |
| CCCCCCCC/C=C\CCCCCCCC(=O)O [OLEIC ACID] | – | – | – | – | > 300 µM | > 30 µM | – |
| NCC1(CC(=O)O)CCCCC1 [GABAPENTIN] | – | – | > 30 µM | > 30 µM | > 30 µM | > 30 µM | AC50 [10]: > 10 µM; AC50 [6]: > 30 µM; AC50 [9]: > 30 µM |
| CC(C)NC[C@H](O)COc1ccc(O)cc1 [PRENALTEROL] | > 30 µM | > 30 µM | – | – | – | > 30 µM | – |
| CC(C)(CO)c1cc2cc(NC(=O)C3(c4ccc5c(c4)OC(F)(F)O5)CC3)c(F)cc2n1C[C@@H](O)CO [TEZACAFTOR] | – | – | > 30 µM | – | > 30 µM | – | AC50 (Estrogen receptor [7]): > 30 µM; AC50 (Estrogen receptor [8]): > 30 µM |
| CN(C)CCOC(c1ccc(Cl)cc1)c1ccccn1 (configuration not stated) [CARBINOXAMINE] | – | – | > 30 µM | > 30 µM | > 30 µM | – | – |
| Cc1c(C)c2c(c(C)c1O)CCC(C)(COc1ccc(CC3SC(=O)NC3=O)cc1)O2 (configuration not stated) [TROGLITAZONE] | 5.72 µM | – | > 30 µM | 6.8 µM | – | > 3 µM | AC50 [10]: 12.5 µM; AC50 (Estrogen receptor [7]): > 30 µM; AC50 (Estrogen receptor [8]): > 30 µM |
| NC(=O)C1(N2CCCCC2)CCN(CCCN2c3ccccc3CCc3ccccc32)CC1 [CARPIPRAMINE] | > 30 µM | – | – | – | – | > 30 µM | – |
| CCC[C@@]1(CCc2ccccc2)CC(O)=C([C@H](CC)c2cccc(NS(=O)(=O)c3ccc(C(F)(F)F)cn3)c2)C(=O)O1 | – | – | > 30 µM | 22 µM | 6.9 µM | – | AC50 [6]: > 30 µM; AC50 [9]: > 30 µM |
| CCOCC(O)COc1ccc(NC(=O)CC[S+](C)C)cc1 (configuration not stated) | – | – | > 30 µM | > 30 µM | > 30 µM | – | AC50 (Estrogen receptor [7]): > 30 µM; AC50 (Estrogen receptor [8]): > 30 µM |

Reference: ChEMBL document CHEMBL5291721, “A preclinical secondary pharmacology resource illuminates target-adverse drug reaction associations of marketed drugs” (Nat Commun, 2023)
